In ChEMBL document CHEMBL1201862, “PubChem BioAssay data set” (2004):
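96-well plates; 48 h exposure; 5 concentrations. Endpoints by linear interpolation between flanking doses. Not reached: highest tested concentration assigned. GI50: concentration for 50% inhibition of growth.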 The source made the active and inactive calls. No stated cut-off is given here; in the data, active = GI50 up to about 1.1 µM and inactive = higher. Where a SMILES comes first, the peptide text is derived from it. [ ]: non-standard residue; d: D form. The star is where a group is joined. ξ: configuration not given here. ξD = NC(CC(=O)O)C(=O)O; Ac3c = NC1(C(=O)O)CC1; Boc = CC(C)(C)OC(=O)*; OBn = c1ccc(CO*)cc1

How the values were obtained:
Assay in all cases: NCI tumour cell line growth inhibition, 48 h
A549 = system: A549
ACHN = system: ACHN
EKVX = system: EKVX
HOP-92 = system: HOP-92
KM12 = system: KM12
LOX IMVI = system: LOX IMVI
MDA-N = system: MDA-N
MOLT-4 = system: MOLT-4
OVCAR-3 = system: OVCAR-3
OVCAR-4 = system: OVCAR-4
OVCAR-5 = system: OVCAR-5
OVCAR-8 = system: OVCAR-8
PC-3 = system: PC-3
SK-MEL-28 = system: SK-MEL-28
SN12C = system: SN12C
SW-620 = system: SW-620
T47D = system: T47D
UACC-62 = system: UACC-62
CCRF-CEM = system: CCRF-CEM

Measured: GI50

Clc1ccc(OCc2nnc(CCCCCCCCc3nnc(COc4ccc(Cl)cc4Cl)n3Nc3ccccc3)n2Nc2ccccc2)c(Cl)c1
inactive: A549 8.77 µM | ACHN 2.44 µM | EKVX 19 µM | HOP-92 17.4 µM | KM12 10.7 µM | LOX IMVI 19 µM | MDA-N 9.93 µM | MOLT-4 22.7 µM | OVCAR-3 12 µM | OVCAR-4 8.51 µM | OVCAR-5 9.23 µM | OVCAR-8 17.4 µM | PC-3 3.07 µM | SK-MEL-28 5.46 µM | SN12C 18.4 µM | SW-620 12.7 µM | T47D 6.53 µM | UACC-62 1.47 µM

COC(=O)C1(NC(=O)C(CC(=O)OCc2ccccc2)NC(=O)OC(C)(C)C)CC1 (stereo not given) (Boc-[ξD](OBn)-[Ac3c]-OMe)
inactive: A549 > 100 µM | ACHN > 100 µM | CCRF-CEM > 100 µM | EKVX > 100 µM | HOP-92 > 100 µM | KM12 > 100 µM | LOX IMVI > 100 µM | MDA-N > 100 µM | MOLT-4 > 100 µM | OVCAR-3 > 100 µM | OVCAR-4 > 100 µM | OVCAR-5 > 100 µM | OVCAR-8 > 100 µM | PC-3 > 100 µM | SK-MEL-28 > 100 µM | SN12C > 100 µM | SW-620 > 100 µM | T47D > 100 µM | UACC-62 1.58 µM

CCC1(CC)C(=O)N(C(=O)c2cc(OC)c(OC)c(OC)c2)N(C(=O)c2cc(OC)c(OC)c(OC)c2)C1=O
inactive: A549 > 50 µM | ACHN > 50 µM | CCRF-CEM > 50 µM | EKVX > 50 µM | KM12 > 50 µM | LOX IMVI > 50 µM | MDA-N > 50 µM | OVCAR-3 > 50 µM | OVCAR-4 > 50 µM | OVCAR-5 > 50 µM | OVCAR-8 > 50 µM | PC-3 > 50 µM | SK-MEL-28 > 50 µM | SN12C 21.8 µM | SW-620 > 50 µM | T47D > 50 µM | UACC-62 > 50 µM

Cc1cc(S(=O)(=O)O)ccc1/N=N/c1c(O)ccc2ccccc12
inactive: A549 > 100 µM | ACHN > 100 µM | CCRF-CEM > 100 µM | EKVX > 100 µM | HOP-92 > 100 µM | KM12 > 100 µM | MDA-N > 100 µM | MOLT-4 > 100 µM | OVCAR-3 > 100 µM | OVCAR-4 > 100 µM | OVCAR-5 > 100 µM | OVCAR-8 > 100 µM | PC-3 > 100 µM | SK-MEL-28 > 100 µM | SN12C > 100 µM | SW-620 > 100 µM | T47D > 100 µM | UACC-62 > 100 µM

Cc1ccc(/C=N/NC2=NCCN2)s1
inactive: A549 > 100 µM | ACHN > 100 µM | EKVX > 100 µM | HOP-92 > 100 µM | KM12 > 100 µM | LOX IMVI > 100 µM | MDA-N > 100 µM | MOLT-4 > 100 µM | OVCAR-3 > 100 µM | OVCAR-4 > 100 µM | OVCAR-5 > 100 µM | OVCAR-8 > 100 µM | PC-3 > 100 µM | SK-MEL-28 > 100 µM | SN12C > 100 µM | SW-620 > 100 µM | T47D > 100 µM | UACC-62 > 100 µM

CCOP(=O)(/C=C\n1cnc2c(=O)n(C(C)=O)c(N)nc21)OCC
inactive: A549 > 100 µM | ACHN > 100 µM | CCRF-CEM > 100 µM | EKVX > 100 µM | KM12 > 100 µM | LOX IMVI > 100 µM | MDA-N > 100 µM | MOLT-4 > 100 µM | OVCAR-3 > 100 µM | OVCAR-4 > 100 µM | OVCAR-5 > 100 µM | OVCAR-8 > 100 µM | PC-3 22.5 µM | SK-MEL-28 > 100 µM | SN12C > 100 µM | SW-620 > 100 µM | T47D > 100 µM | UACC-62 > 100 µM

O=S(=O)(O)C(Cc1nc2ccccc2[nH]1)S(=O)(=O)OCCC1S(=O)(=O)OCCOS1(=O)=O (stereo not given)
inactive: A549 > 100 µM | ACHN > 100 µM | CCRF-CEM > 100 µM | EKVX > 100 µM | HOP-92 > 100 µM | KM12 > 100 µM | LOX IMVI > 100 µM | MDA-N > 100 µM | MOLT-4 > 100 µM | OVCAR-3 > 100 µM | OVCAR-4 > 100 µM | OVCAR-5 > 100 µM | OVCAR-8 > 100 µM | PC-3 > 100 µM | SK-MEL-28 > 100 µM | SN12C > 100 µM | SW-620 > 100 µM | T47D > 100 µM | UACC-62 > 100 µM

C/C(=N/NC(N)=S)c1ccc[nH]1
inactive: A549 > 100 µM | ACHN > 100 µM | CCRF-CEM > 100 µM | EKVX > 100 µM | HOP-92 > 100 µM | KM12 > 100 µM | LOX IMVI > 100 µM | MDA-N > 100 µM | MOLT-4 > 100 µM | OVCAR-3 > 100 µM | OVCAR-4 78.9 µM | OVCAR-5 > 100 µM | OVCAR-8 > 100 µM | PC-3 > 100 µM | SK-MEL-28 > 100 µM | SN12C > 100 µM | SW-620 > 100 µM | T47D 84.3 µM | UACC-62 > 100 µM

CC1=CCCC(C)(O)C2CC(CCC3(C)OC3CC1)C(C)C(=O)O2 (stereo not given)
inactive: A549 > 100 µM | ACHN > 100 µM | CCRF-CEM > 100 µM | EKVX > 100 µM | HOP-92 > 10 µM | KM12 > 100 µM | LOX IMVI > 100 µM | MDA-N > 100 µM | MOLT-4 43.7 µM | OVCAR-3 > 100 µM | OVCAR-4 > 100 µM | OVCAR-5 > 100 µM | OVCAR-8 > 100 µM | PC-3 > 100 µM | SK-MEL-28 > 100 µM | SN12C > 100 µM | SW-620 > 100 µM | T47D > 100 µM | UACC-62 > 100 µM

O=C(/C=C/c1ccc(O)cc1)c1cc(O)cc(O)c1
inactive: A549 16.5 µM | ACHN 6.79 µM | CCRF-CEM 3.36 µM | EKVX 17.3 µM | HOP-92 14.3 µM | LOX IMVI 4.32 µM | MDA-N 11.9 µM | MOLT-4 16.3 µM | OVCAR-3 15.3 µM | OVCAR-4 20.6 µM | OVCAR-5 13.8 µM | OVCAR-8 13.4 µM | PC-3 11.1 µM | SK-MEL-28 21.2 µM | SN12C 15.2 µM | T47D 14.6 µM | UACC-62 10.4 µM

NCCNC(=S)S
inactive: A549 > 100 µM | ACHN > 100 µM | CCRF-CEM 22.4 µM | EKVX > 100 µM | KM12 > 100 µM | LOX IMVI 51.8 µM | MDA-N > 100 µM | MOLT-4 34.9 µM | OVCAR-3 52.7 µM | OVCAR-4 > 100 µM | OVCAR-5 > 100 µM | OVCAR-8 57.5 µM | PC-3 > 100 µM | SK-MEL-28 > 100 µM | SN12C 68.9 µM | SW-620 59.2 µM | T47D > 100 µM | UACC-62 > 100 µM
